This note sets out measurements from the METLIN SMRT retention time set (Domingo-Almenara et al. 2019).

The data set can be described thus: gradient 5% acetonitrile 3 min, to 50% in 2 min, to 85% in 15 min, held 3 min, 100 µL/min. The following applies: column: Zorbax Extend-C18 2.1 x 50 mm; eluents: water / acetonitrile, 0.1% formic acid. The method in brief: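 The mobile phases were water and acetonitrile, each with 0.1% formic acid, pumped at 100 μL/min through a Zorbax Extend-C18 column (2.1 × 50 mm, 1.8 μm). Pure standards were injected as mixtures of ~100 molecules and detected by a quadrupole time-of-flight mass spectrometer in positive and negative ionization mode. Retention time came from computationally picked adduct peaks, each inspected by hand.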
For `CCc1ccc(-c2noc(Cn3c(=O)n(-c4ccccc4F)c(=O)c4sccc43)n2)cc1`, the RP-LC retention time was 1100 s.
`CCCN1C(=O)CN(S(C)(=O)=O)CC1(C)C(=O)NCc1ccc(C)cc1` (stereo not given) came in with an RP-LC retention time of 758 s.
On to `COc1ccc(-c2nc3sc(C(=O)N4CCOCC4)c(C)n3c2NC(C)(C)C)cc1`, for which the RP-LC retention time worked out at 763 s.
Take `NC(N)=NCc1cccc(I)c1`: the RP-LC retention time was 442 s.
`Cc1cc(NC(=O)C(C)(C)C)nn1Cc1ccccc1` returned an RP-LC retention time of 879 s.
`CSc1ccc(CNC(=O)C2CCCN(c3ncc(-c4ccccc4)cn3)C2)cc1` (stereo not given) registered an RP-LC retention time of 1060 s.
In turn, `Cc1ccc(F)cc1NS(=O)(=O)c1cc(-c2[nH]ncc2C(=O)N2CCOCC2)oc1C` registered an RP-LC retention time of 704 s.
Then `CCC(=O)N1CCc2cc(N3CC(C(=O)N4CCC5(CC4)OCCO5)CC3=O)ccc21` (stereo not given), with 654 s.
`CCSc1nnc(NC(=O)c2cc(=O)c(OCc3cccc(OC)c3)cn2C)s1` gave an RP-LC retention time of 685 s.
The compound `O=C(C1CC1)N1CCc2sc(S(=O)(=O)Nc3cccc(Cl)c3)cc2C1` came in with an RP-LC retention time of 879 s.
The value for `O=C(Cc1ccccc1)N1CCCCC1c1nncn1-c1ccccc1` (stereo not given) was 741 s; that for `O=C(Cc1ccc(NS(=O)(=O)c2ccc3c(c2)CCCC3)cc1)NC1CC1` was 766 s.
Consider `CC(=O)c1sc(NC(=O)c2c[nH]c3ccccc3c2=O)nc1C`, for which the RP-LC retention time was found to be 615 s.
For the compound `COc1ccccc1Nc1c(-c2cccc(O)c2)nc2cnccn12`, the RP-LC retention time was determined as 681 s.
The value for `O=C(c1nc(CS(=O)(=O)c2ccccc2)no1)N1CCN(c2ccccn2)CC1` was 616 s.
Consider `Cc1oc(-c2[nH]ncc2C(=O)N(C)C)cc1S(=O)(=O)NCCC(C)C`, for which the RP-LC retention time came out at 692 s.
Then `O=C(c1ccc(Br)cc1)N1CCc2nc[nH]c2C1`, with 578 s; and `COc1ccc(OC)c(CNC(=O)CCc2c(-c3ccc(Br)cc3)nc3ccccn23)c1`, with 693 s.
Compound `COc1ccc(CCc2nc(C3CC(=O)N(c4ccc(Cl)cc4)C3)no2)cc1` (stereo not given) had an RP-LC retention time of 1050 s.
Consider `CCN(CC)S(=O)(=O)c1ccc2c(c1)cc(C(=O)NCCN(C)C)n2C`, for which the RP-LC retention time was 639 s.
Compound `O=c1n(Cc2cccc(Cl)c2)nc2c(S(=O)(=O)N3CCCC3)cccn12` gave an RP-LC retention time of 882 s.
`CCC(=O)N1CCc2[nH]nc(C(=O)NCCCc3ccccc3)c2C1` returned an RP-LC retention time of 709 s.
Regarding `CC1(CNC(=O)COc2ccc(F)cc2)CCOCC1`, the RP-LC retention time was determined as 750 s.
For the compound `Cc1ccnc(NS(=O)(=O)c2ccc(NC(=O)CN3C(=O)CCC3=O)cc2)n1`, the RP-LC retention time came out at 546 s.
The value for `CC(C)(C)C(=O)Nc1ccc(-c2nc(-c3ccccc3)co2)cc1` was 1110 s; that for `CCNC(=O)CC1=C2CCCCC2N(C(C)C)C1=O` (stereo not given) was 671 s.
Compound `COc1ccc(CN2C[C@@H]3C(=O)N(CCCN4CCCC4=O)C(=O)[C@@H]3C2)cc1OC` registered an RP-LC retention time of 575 s.
Compound `O=C(Cn1cc(-c2nnco2)c2ccccc21)NCc1ccccc1Cl` displayed an RP-LC retention time of 831 s.
The value for `O=C(Nc1cnc(-c2ccc(F)cc2)nc1)c1ccccc1` was 961 s.
Then `COC(=O)c1ncn2c1C(=O)N(c1cc(C)ccc1C)C(C)(C(=O)NC1CCCC1)C2` (stereo not given), with 718 s; and `O=C(C1CCCO1)N1CCC(CCOc2ccccc2F)CC1` (stereo not given), with 879 s; and `Cc1cccc(CN2CCN(CC(=O)NC3CCN(Cc4ccccc4)CC3)C(=O)C2=O)c1`, with 609 s.
For `CCc1cc(C(=O)N2CCCC2c2ccc(C)cc2)no1` (stereo not given), the RP-LC retention time was 999 s.
The compound `Cc1cccc(-c2noc(CCn3nc(-c4ccccc4)ccc3=O)n2)c1` returned an RP-LC retention time of 1020 s.
On to `CCN(CC)CCCNC(=O)c1nnc(-c2ccc(S(=O)(=O)N3CCC(C)CC3)cc2)o1`, for which the RP-LC retention time was 696 s.
`COc1ccc(NC(=O)N2CCC3(CC2)N=C(c2ccccc2)C(=O)N3)c(OC)c1` gave an RP-LC retention time of 764 s.
`Cc1ccc(C)c(-c2cc3c4nn(CC(=O)N(C)c5ccccc5)c(=O)n4ccn3n2)c1` returned an RP-LC retention time of 1010 s.
As for `NC(=O)Cc1csc(SCC(=O)c2ccc3c(c2)OCO3)n1`, the RP-LC retention time stood at 648 s.
The value for `COC(=O)c1ccc(C2Nc3ccc(OC)cc3[C@H]3OCCC[C@@H]23)cc1` (stereo not given in full) was 1020 s; that for `CC(C)CN1C(=O)c2cccn2CC1C(=O)NCCCOC(C)C` (stereo not given) was 718 s.
The compound `Cn1c(CNC(=O)CCc2cc3ccccc3[nH]c2=O)nc2ccccc21` showed an RP-LC retention time of 601 s.
Turning to `CSc1ccc(-c2nc3ccccn3c2Nc2ccc3c(c2)OCO3)cc1`, the RP-LC retention time was 711 s.
The compound `CNC(=O)NC1CCN(c2nc3cccnc3n(Cc3ccccc3)c2=O)CC1` displayed an RP-LC retention time of 801 s.
`O=C(NCc1csc(-c2ccccc2)n1)C1CCN(S(=O)(=O)c2ccc3c(c2)CCCC3)CC1`: the RP-LC retention time was 1100 s.
Compound `CCSc1nnc(-c2nn(C)c3c2CN(C(=O)c2ccc(F)cc2)CC3)n1C` showed an RP-LC retention time of 750 s.
In turn, `Cc1cccc(NC(=O)N2CCC(N3CCN(Cc4ccccc4)C(=O)C3=O)CC2)c1C` displayed an RP-LC retention time of 730 s.
In turn, `Cc1ccc(C(=O)NC2CCN(c3cc(-c4ccccc4)[nH]n3)C2)s1` (stereo not given) had an RP-LC retention time of 708 s.
As for `CCOC(=O)Cc1ccc(NC(=O)N2CCc3cn(C)c4cccc(c34)C2)cc1`, the RP-LC retention time is 749 s.
The value for `COCCNC(=O)CCCn1c(=O)c2cccn2c2ccccc21` was 680 s; that for `CCN1C(=O)COc2ccc(-c3noc(/C=C/c4ccccc4)n3)cc21` was 1170 s.
As for `CCC(c1cccs1)N1C(=O)[C@H]2CN(S(=O)(=O)c3cccc(F)c3)C[C@H]2C1=O` (stereo not given in full), the RP-LC retention time is 972 s.
Then `O=C(NC1CC1)c1ccc(OCC2CCN(C(=O)c3cc(F)ccc3Cl)CC2)cc1`, with 839 s.
For `O=C(NCCc1ccc(F)cc1)C(=O)Nc1cccc(N2CCCC2=O)c1`, the RP-LC retention time was 771 s.
Regarding `COc1ccc(-c2nnc(COc3ccc(NC(=O)c4cccnc4)cc3)o2)cc1`, the RP-LC retention time was 711 s.
In turn, `COC(=O)[C@H](Cc1c[nH]c2ccccc12)NC(=O)c1ccc2c(c1)C(=O)N(C1CC1)C2=O` had an RP-LC retention time of 830 s.
The value for `N#Cc1ccc(C(=O)Nc2cnc(N3CCCCC3)nc2)cc1` was 862 s; that for `Cc1ccc(CNC(=O)C2CCN(CCc3cn(C)c4ncccc34)CC2)cc1` was 615 s.
`COc1ccc(-c2noc(CN3CCC(C(=O)NC4CCCCC4)CC3)n2)cc1OC`: the RP-LC retention time was 670 s.
As for `Cc1nn(CC(=O)NCCCN2CCCC2)c(=O)c2cc(-c3ccccc3)nn12`, the RP-LC retention time came to 587 s.
On to `CCCn1cc(S(=O)(=O)Nc2ccccc2Cl)c2cccnc21`, for which the RP-LC retention time was 914 s.
